The source of these data is US12098139B2, “Chemokine receptor modulators and uses thereof” (RAPT Therapeutics, Inc., priority 2018, dated 2024).

The IC50 is the concentration that inhibits the measured activity by half.

One assay concerns the target T1, hCCR4 (Chem5-hCCR4 cells) (Homo sapiens, UniProt P51679).
T1 sequence (P51679 1-360): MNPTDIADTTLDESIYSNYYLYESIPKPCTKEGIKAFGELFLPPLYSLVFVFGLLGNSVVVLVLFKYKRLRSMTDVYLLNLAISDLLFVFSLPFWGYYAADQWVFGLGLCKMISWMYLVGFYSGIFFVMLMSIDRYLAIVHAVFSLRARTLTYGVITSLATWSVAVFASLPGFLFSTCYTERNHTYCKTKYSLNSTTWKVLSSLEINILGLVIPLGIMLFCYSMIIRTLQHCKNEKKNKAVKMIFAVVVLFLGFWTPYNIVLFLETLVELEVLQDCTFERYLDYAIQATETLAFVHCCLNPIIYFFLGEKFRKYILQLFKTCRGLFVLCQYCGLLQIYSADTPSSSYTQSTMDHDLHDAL
Description: Calcium flux assay (CCL22-stimulated, FLIPR Calcium 6 dye). It counts as cell-based. To be noted: Table 3, CCL22 1.5 nM, read-out: Potency (IC50). The method, boiled down: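 Chem5-hCCR4 cells were serum-starved 2 h and loaded 2 h with Calcium 6 dye plus 2.5 mM probenecid. They were then preincubated 1 h at 37 °C with compound (0.5% DMSO). CCL22 was added from a 7.5 nM working solution (5× EC80), and ΔF/Fmin at 485/525 nm was fitted 4-parameter for IC50.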
A general note: A change in cytosolic calcium serves as a functional read-out for many receptors and channels.
As for `C[C@@H](Nc1nc(N2CC([C@H]3CCCN([C@H]4C[C@@H](C(=O)O)C4)C3)C2)nc2ccsc12)c1ccc(Cl)cc1Cl` [Example 31, (1S,3s)-3-((R)-3-(1-(4-(((R)-1-(2,4-dichlorophenyl)ethyl)amino)thieno[3,2-d]pyrimidin-2-yl)azetidin-3-yl)piperidin-1-yl)cyclobutane-1-carboxylic acid], the IC50 was < 100 nM.
Consider `C[C@@H](Nc1nc(N2CC([C@H]3CCCN(C4CCCC4C(=O)O)C3)C2)cnc1C#N)c1ccc(Cl)cc1Cl` (stereo partly drawn) [Example 6, 2-((R)-3-(1-(5-cyano-6-(((R)-1-(2,4-dichlorophenyl)ethyl)amino)pyrazin-2-yl)azetidin-3-yl)piperidin-1-yl)cyclopentane-1-carboxylic acid], for which the IC50 was 100 to 500 nM.
Still for that read-out and setting: the same measure for `Cc1nc(N2CC([C@H]3CCCN([C@H]4C[C@](C)(C(=O)O)C4)C3)C2)nc(N[C@H](C)c2ccc(Cl)cc2Cl)c1C` [Example 22, (1R,3r)-3-((R)-3-(1-(4-(((R)-1-(2,4-dichlorophenyl)ethyl)amino)-5,6-dimethylpyrimidin-2-yl)azetidin-3-yl)piperidin-1-yl)-1-methylcyclobutane-1-carboxylic acid]: < 100 nM; for `C[C@@H](Nc1cnc(C#N)c(N2CC([C@H]3CCCN([C@H]4C[C@@H](C(=O)O)C4)C3)C2)n1)c1ccc(Cl)cc1Cl` [Example 4, (1S,3s)-3-((R)-3-(1-(3-cyano-6-(((R)-1-(2,4-dichlorophenyl)ethyl)amino)pyrazin-2-yl)azetidin-3-yl)piperidin-1-yl)cyclobutane-1-carboxylic acid]: > 500 nM; for `C[C@@H](Nc1nc(N2CC([C@H]3CCCN(CCO)C3)C2)ncc1C#N)c1ccc(Cl)cc1Cl` [Example 14, 4-(((R)-1-(2,4-dichlorophenyl)ethyl)amino)-2-(3-((R)-1-(2-hydroxyethyl)piperidin-3-yl)azetidin-1-yl)pyrimidine-5-carbonitrile]: < 100 nM.
On the same count and under the same terms, the same measure for `C[C@@H](Nc1nc(N2CC([C@H]3CCCN(CCO)C3)C2)ncc1Cl)c1ccc(Cl)cc1Cl` [Example 10, 2-((R)-3-(1-(5-chloro-4-(((R)-1-(2,4-dichlorophenyl)ethyl)amino)pyrimidin-2-yl)azetidin-3-yl)piperidin-1-yl)ethan-1-ol]: < 100 nM; for `C[C@@H](Nc1nc(N2CC([C@H]3CCCN([C@H]4C[C@@](C)(C(=O)O)C4)C3)C2)ncc1Cl)c1ccc(Cl)cc1Cl` [Example 40, (1S,3s)-3-((R)-3-(1-(5-chloro-4-(((R)-1-(2,4-dichlorophenyl)ethyl)amino)pyrimidin-2-yl)azetidin-3-yl)piperidin-1-yl)-1-methylcyclobutane-1-carboxylic acid]: < 100 nM.
Still for that read-out and setting: then `C[C@@H](Nc1nc(N2CC([C@H]3CCCN(CCO)C3)C2)ncc1C#N)c1ccc(S(C)(=O)=O)cc1Cl` [Example 42, 4-(((R)-1-(2-chloro-4-(methylsulfonyl)phenyl)ethyl)amino)-2-(3-((R)-1-(2-hydroxyethyl)piperidin-3-yl)azetidin-1-yl)pyrimidine-5-carbonitrile], with > 500 nM.

The assay is the same for the next values; noted with them: Table 4, CCL22 1.5 nM, read-out: Potency (IC50).
For the compound `C[C@@H](Nc1nc(N2CC([C@H]3CCCN(CCO)C3)C2)cnc1C#N)c1ccc(Cl)cc1S(C)(=O)=O` [Example 49, 3-[[(1R)-1-(4-chloro-2-methylsulfonyl-phenyl)ethyl]amino]-5-[3-[(3R)-1-(2-hydroxyethyl)-3-piperidyl]azetidin-1-yl]pyrazine-2-carbonitrile; 2,2,2-trifluoroacetic acid], the IC50 was > 500 nM.

Still in this assay, the particulars now being: Table 5, CCL22 1.5 nM, read-out: Potency (IC50).
`C[C@@H](Nc1nc(N2CC([C@H]3CCCN([C@H]4C[C@](C)(C(=O)O)C4)C3)C2)nc2ccc(F)cc12)c1ccc(Cl)cc1Cl` [Example 65, 3-[(1R,3R)-3-[1-[4-[[(1R)-1-(2,4-dichlorophenyl)ethyl]amino]-6-fluoro-quinazolin-2-yl]azetidin-3-yl]-1-piperidyl]-1-methyl-cyclobutanecarboxylic acid; 2,2,2-trifluoroacetic acid]: the IC50 was < 100 nM.
The same measure, in the same setting: then `C[C@@H](Nc1nc(N2CC([C@H]3CCCN([C@H]4C[C@@H](C(=O)O)C4)C3)C2)nc2ccccc12)c1ccc(Cl)cc1Cl` [Example 95, 3-[(1S,3R)-3-[1-[4-[[(1R)-1-(2,4-dichlorophenyl)ethyl]amino]quinazolin-2-yl]azetidin-3-yl]-1-piperidyl]cyclobutanecarboxylic acid; 2,2,2-trifluoroacetic acid], with < 100 nM; and `C[C@@H](Nc1nc(N2CC([C@H]3CCCN(CCO)C3)C2)ncc1C(=O)N1CCCC1)c1ccc(Cl)cc1Cl` [Example 85, [4-[[(1R)-1-(2,4-dichlorophenyl)ethyl]amino]-2-[3-[(3R)-1-(2-hydroxyethyl)-3-piperidyl]azetidin-1-yl]pyrimidin-5-yl]-pyrrolidin-1-yl-methanone; 2,2,2-trifluoroacetic acid], with 100 to 500 nM.
Same read-out and setting: the same measure for `C[C@@H](Nc1nc(N2CC([C@H]3CCCN(C4CC(C)(C(=O)O)C4)C3)C2)nc2nc[nH]c12)c1ccc(Cl)cc1Cl` (single isomer, unassigned) [Example 69]: 100 to 500 nM; for `Cc1cc(N[C@H](C)c2ccc(Cl)cc2Cl)nc(N2CC([C@H]3CCCN(C4CC(C)(C(=O)O)C4)C3)C2)n1` (single isomer, unassigned) [Example 90]: < 100 nM.
Take `C[C@@H](Nc1nc(N2CC([C@H]3CCCN(CCO)C3)C2)nc2sccc12)c1ccc(Cl)cc1Cl` [Example 61, 2-[(3R)-3-[1-[4-[[(1R)-1-(2,4-dichlorophenyl)ethyl]amino]thieno[2,3-d]pyrimidin-2-yl]azetidin-3-yl]-1-piperidyl]ethanol; 2,2,2-trifluoroacetic acid]: the IC50 was < 100 nM.
